# Test results as given in patent US6001880A, “Alkylenediamine derivative, anti-ulcer drug, and antibacterial drug” (Shiseido Co., Ltd., priority 1997, dated 1999).
# What was measured:
# [1] = test system: isolated gastric fundic gland; assay: CAP: Acid Secretion Inhibition Test In Vitro ([14C]-aminopyrine uptake); format: cell-based, rabbit (male Japanese White); details: Oryctolagus cuniculus; final concentration 10^-5 M; histamine 10^-5 M stimulation; read-out: CAP: acid secretion inhibitory rate
# Protocol: CAP: Acid Secretion Inhibition Test In Vitro
# The acid secretion inhibitory activity in a cell level is studied. It can also be used for studying the mechanism of the effect.
# First, an isolated gastric fundic gland sample was prepared. Namely, a male Japanese White rabbit (2.5 to 3 kg) was anesthetized to death with Nembutal™ and then the abdomen was incised. Immediately thereafter, the stomach was removed and, after its pyloric and cardiac antrum were severed, incised along its greater curvature into two sheets. The gastric contents adhering to the mucosal surface was washed out with ice-cooled PBS (-) and then carefully washed therein. The gastric wall was spread on a cork board with its mucosal surface facing up and the feed and mucus thereon were completely removed with sterile gauze. The mucosa was separated therefrom by a spatula and then collected in ice-cooled PBS (-). After being washed twice with PBS (-), the mucosa was minced into 2-3 mm^3 pieces by scissors. These pieces were further washed twice with a nutrient solution. The nutrient solution comprises 132.4 mM of NaCl, 5.4 mM of KCl, 5 mM of Na2 HPO4. 12H2 O, 1 mM of NaH2 PO4.2H2 O, 1.2 mM of MgSO4, 1 mM of CaCl2, 25 mM of HEPES, 2 mg/ml of glucose, and 1 mg/ml of BSA.
# Into 70 ml of the nutrient solution containing 1 mg/ml of collagenase, minced mucosal pieces were dispersed and intensely stirred in a conical flask with a stirrer at 37° C. for 40 to 60 minutes. During this period, 100% O2 was sprayed on the nutrient solution surface and the pH was appropriately measured such that it was immediately adjusted to pH 7.4, when the value was therebelow, with a base. The nutrient solution was added to the reaction solution so as to attain the total amount of about 200 ml. After being filtered through a mesh, the suspension was divisionally introduced into 50 ml centrifuge tubes and left for 15 minutes such that gastric fundic gland was deposited. The supernatant was repeatedly removed by an aspirator, dispersed in the nutrient solution, and then left such that the gastric fundic gland was washed three times. At this time, without using a pipette, the suspension was alternately introduced into two centrifuge tubes so as to effect dispersion. The number of cells was counted under microscope and adjusted to 1.6×10^6 cells/ml.
# Then, [^14 C]-aminopyrine uptake test was performed. After an Eppendorf tube was weighed, 10 μl (final concentration: 10^-5 M) of histamine dissolved in the above-mentioned nutrient solution, 10 μl (final concentration: […]) of the test compound dissolved in DMSO, and 10 μl (final concentration: 0.05 μCi/ml) of [^14 C]-aminopyrine diluted with the nutrient solution were introduced therein and then 970 μl of the isolated gastric fundic gland suspension prepared above was added thereto. Subsequently, this mixture was shaken at 37° C. for 40 minutes at 125 cycles/minute. After being centrifuged for 30 seconds, 200 μl of its supernatant was collected into a mini-vial, while the rest was removed by an aspirator. The gland pellet was completely dried as the tube with its lid being opened was kept for one night in a drying oven at 80° C. and then the lid was closed and the weight was determined at room temperature. Then 100 μl of 1N KOH was added thereto and the tube with its lid being closed was treated at 60° C. for 1 to 2 hours so as to dissolve the pellet. Then, the contents thereof were transferred to a mini-vial. Into the mini-vial containing the supernatant or gland pellet, 4 ml of Atomlite™ was added and then the radioactivity was measured by a liquid scintillation counter. Here, after the radioactivity of the gland pellet was corrected by using a sample in which 20 mM of NaSCN was added so as to cancel the hydrogen ion concentration gradient, the integration ratio of aminopyrine specifically trapped by the gland pellet was calculated. This experiment was performed in duplicate.
# Here, its principle will be briefly explained. […]
# [2] = test system: stress ulcer formation in rats; assay: WIS: Restraint and Water Immersion Stress-Induced Ulcer Inhibition Test; format: in vivo, rat (male Crj:SD or Slc:SD); details: 100 mg/kg oral, 10 minutes before 7 h restraint and water immersion (21° C.)
# Protocol: WIS: Restraint and Water Immersion Stress-Induced Ulcer Inhibition Test
# The degree of inhibition of the stress ulcer formation is tested.
# Male Crj:SD or Slc:SD rats (6 to 7-week-old) were fasted overnight, but allowed free access to water. Each group has 5 to 8 of these rats. The sample compound was dissolved or suspended in an aqueous solution of 0.3% sodium carboxymethylcellulose or 0.05% Tween 80 and then was orally administered (100 mg/10 ml/kg). To a control group, the vehicle was administered. 10 minutes later, the rats were placed in a stress cage and immersed to the level of xipfoid process in a water bath (21° C.) for 7 hours. At the end of the stress, the rats were sacrificed by inhalation of ether or carbon dioxide. Then, the stomach of each was removed, inflated by injecting 10 ml of 5% formalin neutral buffer solution, and immersed in 1% formalin neutral buffer solution for 30 minutes or more to be fixed. The stomach was incised along the greater curvature and then the length of each erosion in the glandular portion was determined under dissecting microscope. The sum of the length of erosions per stomach was defined as ulcer index (UI).
# The effect obtained when 100 mg/kg of the sample compound had been administered was expressed as ulcer formation inhibitory rate (%) as follows:
# ulcer formation inhibitory rate (%)=(1-(UI in sample group/UI in control
# [3] = MTT: Cell Damaging and Protecting Effect Test; format: cell-based, rabbit (male Japanese White); details: rabbit, gastric corpus mucosa cells, final concentration 10^-4 M, smaller value is better, read-out: MTT: cell damaging rate
# Source text: MTT: Cell Damaging and Protecting Effect Test
# It is confirmed that there is no toxicity in cell level. Those having a toxicity in cell level are inappropriate as an anti-ulcer drug.
# A male Japanese White rabbit (2.5 to 3 kg) was anesthetized to death by Nembutal™ and, immediately thereafter, its stomach was removed. The greater curvature of the stomach was incised so as to remove the stomach contents therefrom. After the mucosal surface was washed with HBSS (Hanks' Balanced Salt Solution), the stomach in ice-cooled HBSS was transferred to a laboratory. Then, after the pyloric antrum was removed, the gastric corpus mucosa was separated by a spatula and then minced into 2 to 3 mm^3 pieces in BME (Basal Medium Eagle). Thereafter, these pieces were shaken at 120 to 130 cycles/minute for 15 minutes at 37° C. in BME 60 ml containing 280 U/ml of dispase and 30 to 50 U/ml of collagenase. Here, the concentration of collagenase was appropriately changed for each lot in view of the state of cells. The pieces were washed twice with EBSS (Earle's Balanced Salt Solution) containing 1 mM of EDTA and then shaken in MEM (Minimum Essential Medium) containing 1 mM of EDTA at 37° C. for 5 minutes. Subsequently, they were shaken in the dispase and collagenase having the same concentrations as those mentioned above for 15 minutes so as to remove the supernatant and then further shaken at 37° C. for 50 to 60 minutes at 120 to 130 cycles/minute. Then, after being washed twice with HBSS, Ham F12 containing 2% of Ultrocer G™ was used to attain the concentration of 1×10^6 cells/ml. Thus formed suspension was dispensed in each well of a 96-well plate by 200 μl. The plate was incubated in the atmosphere composed of 5% CO2 and 95% air at 37° C. for three days so as to attain a confluent state and then subjected to MTT assay.
# The sample compound was dissolved in DMSO so as to attain a concentration of 10^-2 M and then diluted with HBSS containing 2% of Ultrocer G™ so as to attain a final concentration of 10^-4 M. To each group, which 8 wells were used for, 10 μl of MTT reagent was added immediately after 100 μl of the medium in each well was exchanged for same volume of the resulting solution of the sample compound. After being incubated in an atmosphere composed of 5% CO2 and 95% air at 37° C. for 4 hours, thus formed solution was centrifuged and then its supernatant was discarded. Subsequently, 100 μl of 100% ethanol was added to the residue so as to dissolve MTT formazan. Then, the absorbance (OD: 570 to 630) was measured by a microplate reader. This method utilizes a phenomenon in which MTT is changed to MTT formazan only by mitochondria of living cells so as to change color.
# The cell damaging or cell protecting effect of the sample compound at the final concentration of 10^-4 M was expressed as cell damaging rate (%) as follows:
# cell damaging rate (%)=(1-(absorbance in sample group/absorbance in control
# Accordingly, the smaller value is better in the cell damaging rate.
Structure (SMILES),inhibition at 10 µM [1] [%],WIS: ulcer formation inhibitory rate [2] [%],"cytotoxicity at 4 h, 100 µM [3] [%]"
CCN(CC)CCNC(=O)c1ccccc1OC/C=C(\C)CCC=C(C)C [Example 2],99.9,82,28
CCN(CC)CCNC(=O)c1ccc(OCC=C(C)C)cc1 [Example 3],70.8,88,1
CCN(CC)CCNC(=O)c1ccc(OC/C=C(/C)CCC=C(C)C)cc1 [Example 5],109,90,30
CCC(C)N(CCNC(=O)c1ccc(OC/C=C(\C)CCC=C(C)C)cc1)C(C)CC (centres unmarked) [Example 8],99.9,58,38
CC(C)=CCC/C(C)=C/COc1ccccc1C(=O)NCCN(C)C [Example 13],96.6,75,19
CCN(CC)CCNC(=O)c1ccc(OC/C=C(\C)CCC=C(C)C)cc1OC/C=C(\C)CCC=C(C)C [Example 15],96.5,92,44
CCN(CC)CCNC(=O)c1ccc(OCC=C(C)C)cc1OCC=C(C)C [Example 20],100,67,28
CCN(CC)CCNC(=O)c1cc(OCC=C(C)C)ccc1OCC=C(C)C [Example 21],100,77,36
CCN(CC)CCNC(=O)c1ccc(OCC=C(C)C)c(OCC=C(C)C)c1 [Example 22],99.8,81,16
CCN(CC)CCNC(=O)c1ccccc1SC/C=C(\C)CCC=C(C)C [Example 25],96.1,82,19
CC(C)=CCC/C(C)=C/CN(C/C=C(\C)CCC=C(C)C)c1ccc(C(=O)NCCN(C(C)C)C(C)C)cc1 [Example 27],38.5,45,39
CCN(CC)CCNC(=O)c1ccc(OC)c(OC/C=C(\C)CCC=C(C)C)c1 [Example 29],100,81,49
CCN(CC)CCNC(=O)c1cccc(OC)c1OC/C=C(\C)CCC=C(C)C [Example 31],100,73,17
CCN(CC)CCNC(=O)c1ccc(OC)cc1OC/C=C(\C)CCC=C(C)C [Example 32],100,73,28
CCN(CC)CCNC(=O)c1cc(OC)ccc1OC/C=C(\C)CCC=C(C)C [Example 33],100,67,26
CCN(CC)CCNC(=O)c1cc(F)ccc1OC/C=C(\C)CCC=C(C)C [Example 35],105,81,25
CC(C)N(CCNC(=O)c1ccc2c(c1)OCO2)C(C)C [Example 58],,96,29
CC(C)N(CCNC(=O)c1cc(C(C)(C)C)cc(C(C)(C)C)c1)C(C)C [Example 65],,86,5
CC(C)N(CCNC(=O)c1ccc(C(=O)NC(C)(C)C)cc1)C(C)C [Example 67],,77,-35
CC(C)N(CCNC(=O)c1ccc(NC(C)(C)C)cc1)C(C)C [Example 68],,79,-58
